± gives the standard deviation of the averaged measurements.
What follows are test systems tested with COc1cc(CCc2cc(NC(=O)c3ccc(N4CC(C)NC(C)C4)cc3)n[nH]2)cc(OC)c1 [AZD4547] (assay: surviving fraction relative to DMSO-only wells; higher = less growth inhibition). Conditions: 50 nM; exposure time: 5 days.
In short: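 Lines were retained only if, across three screens, replicate Pearson r was >0.7 and median Z' was >0.3. Viability was measured as CellTiter-Glo luminescence and reported as surviving fraction relative to the median of DMSO-only wells. Readings followed 10 minutes at room temperature, after log-phase tumour cells seeded at 250–500 per well in 384-well plates had been exposed, from 24 hours after seeding, continuously for five days to inhibitors at 0.5, 1, 5, 10, 50, 100, 500 and 1000 nM.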
22RV1 PROSTATE gave a surviving fraction of 0.998 ± 0.048. In the case of 93VU HEADNECK, the surviving fraction is reported as 1.11 ± 0.042. Test System 143B BONE has a surviving fraction of 0.921 ± 0.13. With A549 LUNG the surviving fraction was 0.9867 ± 0.0075. For ASKA SYNOVIAL, the surviving fraction was 1.16 ± 0.036. BT20 BREAST gave a surviving fraction of 1.05 ± 0.072. BT549 BREAST showed a surviving fraction of 1.04 ± 0.12. For CADOES1 SOFT TISSUE, the surviving fraction was 0.912 ± 0.085. CAL51 BREAST showed a surviving fraction of 0.7553 ± 0.0068. CAL120 BREAST gave a surviving fraction of 0.713 ± 0.029. CASKI CERVIX gave a surviving fraction of 0.961 ± 0.053. For CHLA90 AUTONOMIC GANGLIA, the surviving fraction was 0.883 ± 0.051. For CME SYNOVIAL, the surviving fraction was 1 ± 0.075. For COLO320DM LARGE INTESTINE, the surviving fraction was 1.1 ± 0.076. DU4475 BREAST showed a surviving fraction of 1.15 ± 0.3. H23 LUNG gave a surviving fraction of 1.01 ± 0.037. Work on HCC38 BREAST yielded a surviving fraction of 0.78 ± 0.14. HCC70 BREAST gave a surviving fraction of 1.1 ± 0.091. Work on HCC78 LUNG yielded a surviving fraction of 1.08 ± 0.039. HCC202 BREAST showed a surviving fraction of 1.31 ± 0.41. For HCC1806 BREAST, the surviving fraction was 1.16 ± 0.11. Test System HCC1954 BREAST has a surviving fraction of 0.956 ± 0.023. HCT15 LARGE INTESTINE showed a surviving fraction of 1.03 ± 0.042. HELA CERVIX was tested, and the surviving fraction was 1.08 ± 0.013. HMLE3 BREAST showed a surviving fraction of 0.57 ± 0.046. With HMT3552 BREAST the surviving fraction was 1.03. Test System HOS BONE has a surviving fraction of 1 ± 0.019. HOSMNG BONE was tested, and the surviving fraction was 0.964 ± 0.12. HS57T BREAST gave a surviving fraction of 0.687 ± 0.029. HS578T BREAST was tested, and the surviving fraction was 0.966 ± 0.056. Test System HSSYII SYNOVIAL has a surviving fraction of 0.295 ± 0.015. For HT1080 SOFT TISSUE, the surviving fraction was 0.979 ± 0.016. HU09 BONE was tested, and the surviving fraction was 0.797 ± 0.066. For JIMT1 BREAST, the surviving fraction was 1.032 ± 0.0075. For “JURKAT HAEMATOPOIETIC AND LYMPHOID TISSUE”, the surviving fraction was 0.967 ± 0.034. In the case of KPD BONE, the surviving fraction is reported as 1 ± 0.067. For LM7 BONE, the surviving fraction was 0.939 ± 0.064. With MCF7 BREAST the surviving fraction was 1 ± 0.069. Work on MDAMB134 BREAST yielded a surviving fraction of 0.973 ± 0.14. Test System MDAMB157 BREAST has a surviving fraction of 0.642 ± 0.13.

Same assay, conditions: 100 nM; exposure time: 5 days
22RV1 PROSTATE gave a surviving fraction of 1.03 ± 0.053. 93VU HEADNECK showed a surviving fraction of 1.16 ± 0.089. Work on 143B BONE yielded a surviving fraction of 1.01 ± 0.06. For A549 LUNG, the surviving fraction was 1.03 ± 0.066. With ASKA SYNOVIAL the surviving fraction was 1.08 ± 0.084. For BT20 BREAST, the surviving fraction was 1.04 ± 0.072. BT549 BREAST was tested, and the surviving fraction was 0.95 ± 0.096. For CADOES1 SOFT TISSUE, the surviving fraction was 0.955 ± 0.017. CAL51 BREAST showed a surviving fraction of 0.738 ± 0.022. CAL120 BREAST gave a surviving fraction of 0.681 ± 0.019. Test System CASKI CERVIX has a surviving fraction of 1.03 ± 0.048. Test System CHLA90 AUTONOMIC GANGLIA has a surviving fraction of 0.692 ± 0.039. With CME SYNOVIAL the surviving fraction was 0.935 ± 0.097. Test System COLO320DM LARGE INTESTINE has a surviving fraction of 1.05 ± 0.1. DU4475 BREAST showed a surviving fraction of 1.08 ± 0.21. H23 LUNG showed a surviving fraction of 1.05 ± 0.028. Work on HCC38 BREAST yielded a surviving fraction of 0.801 ± 0.14. With HCC70 BREAST the surviving fraction was 1.15 ± 0.018. Test System HCC78 LUNG has a surviving fraction of 1.13 ± 0.25. With HCC202 BREAST the surviving fraction was 1.16 ± 0.1. With HCC1806 BREAST the surviving fraction was 1.13 ± 0.05. HCC1954 BREAST gave a surviving fraction of 0.887 ± 0.069. With HCT15 LARGE INTESTINE the surviving fraction was 1.08 ± 0.033. In the case of HELA CERVIX, the surviving fraction is reported as 1.07 ± 0.03. Test System HMLE3 BREAST has a surviving fraction of 0.455 ± 0.053. Test System HMT3552 BREAST has a surviving fraction of 1.04. Test System HOS BONE has a surviving fraction of 0.987 ± 0.021. With HOSMNG BONE the surviving fraction was 0.9967 ± 0.0029. HS57T BREAST showed a surviving fraction of 0.744 ± 0.043. With HS578T BREAST the surviving fraction was 0.94 ± 0.036. With HSSYII SYNOVIAL the surviving fraction was 0.302 ± 0.0015. With HT1080 SOFT TISSUE the surviving fraction was 0.9753 ± 0.0087. With HU09 BONE the surviving fraction was 0.856 ± 0.026. JIMT1 BREAST gave a surviving fraction of 1.07 ± 0.032. In the case of “JURKAT HAEMATOPOIETIC AND LYMPHOID TISSUE”, the surviving fraction is reported as 0.951 ± 0.033. KPD BONE gave a surviving fraction of 0.956 ± 0.088. Work on LM7 BONE yielded a surviving fraction of 0.985 ± 0.12. Test System MCF7 BREAST has a surviving fraction of 0.9181 ± 0.0017. With MDAMB134 BREAST the surviving fraction was 0.899 ± 0.089. MDAMB157 BREAST was tested, and the surviving fraction was 0.537 ± 0.048.

Same assay, conditions: 500 nM; exposure time: 5 days
For 22RV1 PROSTATE, the surviving fraction was 1.1 ± 0.084. 93VU HEADNECK gave a surviving fraction of 1.1 ± 0.077. Test System 143B BONE has a surviving fraction of 0.994 ± 0.04. A549 LUNG gave a surviving fraction of 0.983 ± 0.026. With ASKA SYNOVIAL the surviving fraction was 0.877 ± 0.059. With BT20 BREAST the surviving fraction was 1.15 ± 0.043. With BT549 BREAST the surviving fraction was 0.968 ± 0.094. Test System CADOES1 SOFT TISSUE has a surviving fraction of 1.09 ± 0.11. Work on CAL51 BREAST yielded a surviving fraction of 0.616 ± 0.021. CAL120 BREAST gave a surviving fraction of 0.552 ± 0.05. CASKI CERVIX gave a surviving fraction of 0.805 ± 0.02. For CHLA90 AUTONOMIC GANGLIA, the surviving fraction was 0.568 ± 0.029. Test System CME SYNOVIAL has a surviving fraction of 0.761 ± 0.051. For COLO320DM LARGE INTESTINE, the surviving fraction was 1.08 ± 0.078. DU4475 BREAST was tested, and the surviving fraction was 1.11 ± 0.21. Work on H23 LUNG yielded a surviving fraction of 0.979 ± 0.075. HCC38 BREAST gave a surviving fraction of 0.66 ± 0.11. For HCC70 BREAST, the surviving fraction was 1.03 ± 0.098. HCC78 LUNG was tested, and the surviving fraction was 1.11 ± 0.25. HCC202 BREAST gave a surviving fraction of 1.52 ± 0.38. HCC1806 BREAST was tested, and the surviving fraction was 0.996 ± 0.078. With HCC1954 BREAST the surviving fraction was 1.0088 ± 0.00035. Test System HCT15 LARGE INTESTINE has a surviving fraction of 1.1 ± 0.044. With HELA CERVIX the surviving fraction was 1.08 ± 0.092. Work on HMLE3 BREAST yielded a surviving fraction of 0.418 ± 0.064. HMT3552 BREAST showed a surviving fraction of 0.852. HOS BONE showed a surviving fraction of 0.9247 ± 0.0092. For HOSMNG BONE, the surviving fraction was 0.945 ± 0.087. Test System HS57T BREAST has a surviving fraction of 0.679 ± 0.035. HS578T BREAST gave a surviving fraction of 0.871 ± 0.03. In the case of HSSYII SYNOVIAL, the surviving fraction is reported as 0.259 ± 0.0075. Work on HT1080 SOFT TISSUE yielded a surviving fraction of 0.936 ± 0.03. HU09 BONE was tested, and the surviving fraction was 0.624 ± 0.062. In the case of JIMT1 BREAST, the surviving fraction is reported as 1.05 ± 0.02. With “JURKAT HAEMATOPOIETIC AND LYMPHOID TISSUE” the surviving fraction was 1.04 ± 0.018. KPD BONE showed a surviving fraction of 0.804 ± 0.039. Test System LM7 BONE has a surviving fraction of 0.762 ± 0.034. Work on MCF7 BREAST yielded a surviving fraction of 0.921 ± 0.066. With MDAMB134 BREAST the surviving fraction was 1.04 ± 0.028. For MDAMB157 BREAST, the surviving fraction was 0.562 ± 0.1.

Same assay, conditions: 1000 nM; exposure time: 5 days
Work on 22RV1 PROSTATE yielded a surviving fraction of 1.08 ± 0.082. 93VU HEADNECK gave a surviving fraction of 0.975 ± 0.086. With 143B BONE the surviving fraction was 0.974 ± 0.1. A549 LUNG showed a surviving fraction of 1.031 ± 0.007. In the case of ASKA SYNOVIAL, the surviving fraction is reported as 0.658 ± 0.041. In the case of BT20 BREAST, the surviving fraction is reported as 0.968 ± 0.15. Test System BT549 BREAST has a surviving fraction of 0.861 ± 0.052. CADOES1 SOFT TISSUE was tested, and the surviving fraction was 0.992 ± 0.11. CAL51 BREAST was tested, and the surviving fraction was 0.602 ± 0.059. CAL120 BREAST showed a surviving fraction of 0.491 ± 0.039. Work on CASKI CERVIX yielded a surviving fraction of 0.548 ± 0.019. Test System CHLA90 AUTONOMIC GANGLIA has a surviving fraction of 0.473 ± 0.041. Test System CME SYNOVIAL has a surviving fraction of 0.724 ± 0.035. COLO320DM LARGE INTESTINE was tested, and the surviving fraction was 1.1 ± 0.2. For DU4475 BREAST, the surviving fraction was 1 ± 0.22. H23 LUNG gave a surviving fraction of 0.964 ± 0.066. In the case of HCC38 BREAST, the surviving fraction is reported as 0.785 ± 0.046. Test System HCC70 BREAST has a surviving fraction of 0.946 ± 0.093. HCC78 LUNG was tested, and the surviving fraction was 1.1 ± 0.25. Work on HCC202 BREAST yielded a surviving fraction of 1.18 ± 0.21. In the case of HCC1806 BREAST, the surviving fraction is reported as 1 ± 0.17. Test System HCC1954 BREAST has a surviving fraction of 1 ± 0.1. HCT15 LARGE INTESTINE showed a surviving fraction of 1.1 ± 0.041. HELA CERVIX was tested, and the surviving fraction was 1.11 ± 0.13. Test System HMLE3 BREAST has a surviving fraction of 0.379 ± 0.032. HMT3552 BREAST showed a surviving fraction of 0.888. In the case of HOS BONE, the surviving fraction is reported as 0.802 ± 0.039. HOSMNG BONE was tested, and the surviving fraction was 1.04 ± 0.097. In the case of HS57T BREAST, the surviving fraction is reported as 0.628 ± 0.045. Test System HS578T BREAST has a surviving fraction of 0.911 ± 0.039. Test System HSSYII SYNOVIAL has a surviving fraction of 0.24 ± 0.013. Test System HT1080 SOFT TISSUE has a surviving fraction of 0.817 ± 0.065. HU09 BONE showed a surviving fraction of 0.419 ± 0.031. Work on JIMT1 BREAST yielded a surviving fraction of 1.06 ± 0.03. Test System “JURKAT HAEMATOPOIETIC AND LYMPHOID TISSUE” has a surviving fraction of 1 ± 0.035. With KPD BONE the surviving fraction was 0.642 ± 0.036. In the case of LM7 BONE, the surviving fraction is reported as 0.571 ± 0.086. MCF7 BREAST gave a surviving fraction of 0.924 ± 0.063. MDAMB134 BREAST showed a surviving fraction of 1.05 ± 0.17. Test System MDAMB157 BREAST has a surviving fraction of 0.374 ± 0.039.

Reference: the supplement of paper PMC6045584
